Measured values taken from patent US4963530A, “Renin inhibitor peptide compounds, a process for the preparation thereof and pharmaceutical composition comprising the same” (Fujisawa Pharmaceutical Company, Ltd., priority 1987, dated 1990).
Numbering of substitutions follows the chain as printed.

Columns and labels:
[1] = target: T1, endogenous renin in human plasma (Homo sapiens, UniProt P00797); assay: Test 1: inhibition of human plasma renin activity (Ang I formation, RIA); format: biochemical; conditions: human plasma pool, pH 6.0, 37° C., 90 minutes incubation, Probit method; read-out: IC50 (concentration that inhibited plasma renin activity by 50%)
T1 construct: incubation (37° C.) of the endogenous renin and angiotensinogen in plasma at pH 6.0; from tissue; host or cells: pooled human plasma (EDTA) from male volunteers
T1 sequence (P00797 67-406): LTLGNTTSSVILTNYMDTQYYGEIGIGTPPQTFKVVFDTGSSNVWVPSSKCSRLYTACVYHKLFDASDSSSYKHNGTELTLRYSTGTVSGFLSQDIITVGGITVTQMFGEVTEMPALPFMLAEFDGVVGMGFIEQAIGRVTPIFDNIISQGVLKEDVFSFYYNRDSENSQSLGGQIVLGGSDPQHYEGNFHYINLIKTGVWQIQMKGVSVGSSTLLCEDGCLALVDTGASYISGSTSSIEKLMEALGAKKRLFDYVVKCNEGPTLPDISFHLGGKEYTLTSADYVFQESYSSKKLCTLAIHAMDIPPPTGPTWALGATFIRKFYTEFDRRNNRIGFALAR
Protocol: Human plasma was collected from male volunteers pretreated with no drugs and used as a pool. Disodium salt of ethylenediaminetetraacetic acid (EDTA) was used as the anticoagulant. Plasma renin activity was measured as the rate of angiotensin I (Ang I) formation after incubation (37° C.) of the endogenous renin and angiotensinogen in plasma at pH 6.0. The incubation mixture contained 250 μl of plasma, 5 μl of (phenylmethyl)sulfonyl fluoride, 30 μl of buffer (sodium, potassium-phosphate, pH 6.0), and 15 μl of an appropriate concentration of test compound in 50% ethyl alcohol-water vehicle. The Ang I formed after 90 minutes of incubation was measured by radioimmunoassay (RIA) which was carried out with a commercial kit, RENCTK 100 (manufactured by Commissariat A L'energie Atomique). Samples were incubated in duplicate and each tube was measured in duplicate in the RIA. Percentage inhibition of plasma renin activity was calculated by comparing the amount of Ang I produced with and without a test compound. The concentration of test compound that inhibited plasma renin activity by 50% ) (IC50) was determined by Probit method.

[2] = Test 2: hypotensive effect (mean arterial blood pressure) in sodium-depleted conscious cynomolgus monkeys, oral; format: in vivo, cynomolgus monkeys (Macaca fascicularis); conditions: 32 mg/kg po, sodium-depleted (furosemide) conscious cynomolgus monkeys, MAP measured 0-6 hours
Protocol: (§1) Male or female cynomolgus monkeys (Macaca fascicularis) weighing about 2.5-3.5 kg were used. Sodium depletion was achieved by administering furosemide, 15 mg/kg subcutaneously one day before and then 10 mg/kg intravenously 30 minutes before the administration of the test compound.
(§2) Test compounds were dissolved in diluted equimolar hydrochloric acid (pH 5-6) and orally administered to conscious and trained monkeys placed in restraining chairs with pneumatic cuff positioned around the arm for oscillometric measurement of mean arterial blood pressure (MAP) (Model BP-203 NPJ, manufactured by Nippon Colin).
The MAP was measured at 0 (predosing base line), 0.5, 1, 2, 3, 4 and 6 hours after administration of the test compound. The maximum hypotensive effect was calculated as the maximum percentage fall of MAP from the pretreatment value.

[3] = target: T2, plasma renin activity (PRA) (Macaca fascicularis, UniProt Q6DLS0); assay: Test 2: inhibition of plasma renin activity (PRA) in sodium-depleted cynomolgus monkeys after oral dosing; format: in vivo, cynomolgus monkeys (Macaca fascicularis); conditions: cynomolgus monkey; 32 mg/kg po, sodium-depleted (furosemide) cynomolgus monkeys, plasma collected 0-6 hours after dosing; read-out: Maximum inhibition of PRA
T2 construct: plasmas were obtained for determination of plasma renin activity (PRA); from tissue; host or cells: plasma of sodium-depleted cynomolgus monkeys, collected after oral dosing
T2 sequence (Q6DLS0 67-406): T1 sequence (P00797 67-406) with T2A, I148L, S169A
Protocol: as §1, §2
Blood samples were collected at 0, 0.5, 1, 2, 4 and 6 hours after dosing from the antecubital vein of the monkey into disodium salt of EDTA coated tubes, centrifuged for 10 min (3000 rpm, 4° C.) and plasmas were obtained for determination of plasma renin activity (PRA). PRA was measured as the rate of Ang I formation with the same principle as illustrated in Test 1. 100 μl of sample plasma was mixed with 100 μl of the solution of angiotensinase inhibitors (3 mM 8-hydroxyquinoline sulfate and 5 mM 2,3-dimercaptopropanol , SB-REN-1, SORIN BIOMEDICA, Italy). Half (100 μl) of the mixture was incubated at 37° C. for one hour and Ang I formed was determined by a commercial RIA kit (DINABOTT). […] Percentage inhibition of PRA was calculated by the following formula: [formula] […]

| Compound | IC50 [1] | Maximum hypotensive effect (maximum percentage fall of MAP from pretreatment value) [2] | inhibition at 32 mg/kg [3] |
| --- | --- | --- | --- |
| CC(C)CC[C@H](O)[C@H](CC1CCCCC1)NC(=O)[C@H](Cc1c[nH]cn1)NC(=O)[C@H](Cc1ccccc1)NC(=O)N1CCOCC1 [Test Compound (a), 2(S)-(N-Morpholinocarbonyl-L-phenylalanyl-L-histidyl)amino-1-cyclohexyl-3(S)-hydroxy-6-methylheptane] | 61 nM | – | – |
| CC(C)CC[C@H](O)[C@H](CC1CCCCC1)NC(=O)[C@H](Cc1c[nH]cn1)N(C)C(=O)[C@H](Cc1ccccc1)NC(=O)N1CCOCC1 [Test Compound (b), 2(S)-(N-Morpholinocarbonyl-L-phenylalanyl-N^α -methyl-L-histidyl)amino-1-cyclohexyl-3(S)-hydroxy-6-methylheptane] | 21 nM | 25% | 96% |
| CC(C)CC[C@H](O)[C@H](CC1CCCCC1)NC(=O)[C@H](Cc1c[nH]cn1)N(C)C(=O)[C@H](Cc1ccccc1)NC(=O)N1CCSCC1 [Test Compound (c), 2(S)-(N-Thiomorpholinocarbonyl-L-phenylalanyl-N^α -methyl-L-histidyl)amino-1-cyclohexyl-3(S)-hydroxy-6-methylheptane] | 24 nM | – | – |
| CC(C)CC[C@H](O)[C@H](CC1CCCCC1)NC(=O)[C@H](Cc1c[nH]cn1)N(C)C(=O)[C@H](Cc1ccccc1)NC(=O)N1CCc2ccccc2C1 [Test Compound (d), 2(S)-[N-(1,2,3,4-Tetrahydroisoquinolin-2-ylcarbonyl)-L-phenylalanyl-N^α -methyl-L-histidyl]amino-1-cyclohexyl-3(S)-hydroxy-6-methylheptane] | 60 nM | – | – |
